# From publication PMC1838960, “Inhibition of Hippocampal Matrix Metalloproteinase-3 and -9 Disrupts Spatial Memory” (Neural Plasticity, 2006)
# What was measured:
# [1] = biological target: T1, MMP-3 (stromelysin-1) catalytic domain (Homo sapiens, UniProt P08254); experiment: MMP fluorescence enzyme assay, MMP-3 catalytic domain; type: biochemical
# T1 construct: Catalytic domains for MMP-3 and -9 were used; purchased Biomol International LP
# Procedure: (§1) Enzyme assays for MMP activity were conducted in black 96-well plates according to manufacturer instructions (Biomol International LP, Plymouth Meeting, Pa). Catalytic domains for MMP-3 and -9 were used with the fluorogenic peptide substrate: Mca-Pro-Leu-Gly-Leu-Dpa-Ala-Arg-NH2. Solutions were preincubated with FN-439 for 30 minutes at 37°C. Subsequently, the fluorogenic peptide substrate was added and fluorescence was measured at 10-minute intervals for one hour using a Perkin-Elmer plate reader. Slopes were derived from the linear portion of the curves and background slopes were subtracted from all samples. The slopes were normalized as percent of enzyme activity compared with activity in the absence of inhibitor. IC50 values were extrapolated using quadratic and sigmoidal curve fit programs for each sample and were averaged.
# [2] = biological target: T2, MMP-9 (gelatinase B) catalytic domain (Homo sapiens, UniProt P14780); experiment: MMP fluorescence enzyme assay, MMP-9 catalytic domain; type: biochemical
# T2 construct: Catalytic domains for MMP-3 and -9 were used; purchased Biomol International LP
# T2 sequence (P14780 107-457 limits assumed): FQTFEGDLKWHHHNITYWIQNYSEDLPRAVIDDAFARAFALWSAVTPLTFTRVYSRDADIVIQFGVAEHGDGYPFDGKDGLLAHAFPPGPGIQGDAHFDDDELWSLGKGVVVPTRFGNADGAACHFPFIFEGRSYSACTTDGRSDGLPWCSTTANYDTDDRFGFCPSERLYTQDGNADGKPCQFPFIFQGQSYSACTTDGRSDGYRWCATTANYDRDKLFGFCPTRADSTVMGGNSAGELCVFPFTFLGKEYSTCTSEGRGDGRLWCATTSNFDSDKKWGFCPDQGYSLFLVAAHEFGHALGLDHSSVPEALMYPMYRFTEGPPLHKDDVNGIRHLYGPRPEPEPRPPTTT
# Procedure: as §1
# [3] = system: MMP-2 and MMP-9 gelatinase activity in the hippocampus; experiment: In situ zymography of hippocampal sections (DQ-gelatin-FITC); design: species or system rat; details: 14.4 mM, 3 h preincubation at 37°C plus 1 h with DQ-gelatin, vs PBS
# Procedure: (§2) Naïve rats were euthanized by decapitation, their brains were sectioned (10 μm) using a cryostat and the sections were mounted on slides and stored at −80°C for no longer than a week. These sections were warmed to room temperature for 10 minutes and preincubated for 3 hours in either PBS (pH 7.4 control) or 14.4 mM FN-439 in PBS at 37°C. The control slides were then incubated for an additional hour with DQ-gelatin-FITC (DQ, Molecular Probes, Eugene, Ore) and the treated slides were incubated with DQ containing 14.4 mM FN-439 for 1 additional hour. Following incubation, the slides were washed in PBS, fixed with 4% paraformaldehyde in PBS, and cover slipped using prolong antifade mounting medium containing DAPI (Molecular Probes, Eugene, Ore). The slides were examined using a Zeiss Axioplan 2I microscope using epifluorescent illumination and appropriate filter sets for visualizing DQ (FITC) and DAPI (UV) fluorescence. Images were captured at 100–200X magnification using a Kodak DC290 digital camera and Photoshop software (Adobe Systems Inc, San Jose, Calif).
# [4] = system: cell nuclei of hippocampal sections; experiment: Cell nuclei (DAPI) appearance in hippocampal sections, cellular toxicity; design: species or system rat; details: 14.4 mM; vs PBS
# Procedure: as §2
# [5] = Morris water maze task, acquisition training; type: in vivo, male Sprague-Dawley rats; details: for positive thigmotaxis (ratio of time near the wall to total trial time), day 8 / day 8 latency to find the platform / day 8 distance swum to find the platform: 70 μg/day cumulative; for day 8 latency to find the platform / day 8 distance swum to find the platform: mean ± SEM; for day 8 latency to find the platform: n = 8; for overall swim speed during the 8 days of training: no difference; for distance to find the platform, representative rat / latency to find the platform, representative rat: single rat, day 8 trial
# From the text: (§3) The protocols utilized in this investigation minimized pain and discomfort, were approved by the Washington State University Institutional Animal Care and Use Committee, and conformed to the guidelines for the care and use of laboratory animals as required by the National Institutes of Health Guide for the Care and Use of Laboratory Animals (NIH Publication No. 80-23). Male Sprague-Dawley rats (300–350 g, breeding stock derived from Taconic, Germantown, NY) were adapted to a 12-hour light/dark cycle initiated at 0600 hour in the American Association for the Accreditation of Laboratory Animal Care approved vivarium at a temperature of 21 ± 1°C. The animals were housed in pairs and provided with water and food (Harlan Teklad F6 Rodent Diet, Madison, WI) ad libitum except the night prior to surgery when food was withheld. Each animal was prepared with bilateral guide cannulas targeting either the dorsal hippocampi (flat skull coordinates relative to bregma: post: −4.0 mm, lat: ±2.5 mm from midline) or lateral ventricles (post: 1.0 mm, lat: ±1.5 mm from midline) under ketamine-xylazine anesthesia (100 and 2 mg/kg, resp., intramuscularly). The guide was constructed from PE-60 tubing (Clay Adams, Parsippany, NJ) with a heat bulge that rested on top of the cranium thus serving as a stop to further penetration. The total length of the guide was 2.5 cm with a distance from the beveled tip to the heat bulge of 2.0 and 2.5 mm for the dorsal hippocampus and icv, respectively. All infusions were made using a 30-gauge stainless-steel tubing injector with a beveled end that protruded 2.0 mm beyond the tip of the PE guide cannula. The injector was attached to a 10 μL Hamilton syringe by PE-20 tubing. The animals were hand gentled for 5 minutes per day during the 7 days of recovery from surgery. Those animals prepared with dorsal hippocampus guide cannulas were randomly assigned to one of two groups (8 rats each) that received either FN-439 or artificial cerebrospinal fluid vehicle (aCSF; in mM: 124 NaCl, 3 KCl, 1.24 KH2PO2, 1.3 MgSO4, 2.0 CaCl2, 26 NaHCO3, and 10 D-glucose). Those animals prepared with icv cannulas were similarly assigned.
# Our laboratory previously used a 7.2 mM stock in aCSF icv infused over 5 minutes to a total volume of 10 μL (35 μg) 10 minutes prior to behavioral testing, and again 3 hours post-testing (cumulative dose = 70 μg). Presently, we utilized a 14.4 mM stock in aCSF infused over 1 minute to a total volume of 5 μL, that is, 2.5 μL for each side (17.5 μg in 2.5 μL aCSF/min) 20 minutes prior to behavioral testing (5 trials), and again 10 minutes after testing (cumulative dose = 70 μg) each day. The protocol used for icv infusion was 35 μg in 5 μL aCSF infused over 1 minute, 20 minutes prior to testing and again 10 minutes following testing (cumulative dose = 70 μg). Behavioral testing in the Morris water maze task was conducted by an experimenter blind to the treatment of each animal.
# The Morris water maze task was used to test spatial memory acquisition. This protocol has been described in detail. Briefly, each trial entailed placing the animal into the water facing the wall of the pool (1.6 m in diameter painted black, filled to a depth of 30 cm) at one of four locations (North (N), South (S), East (E), and West (W)) and tracking its swimming path and duration (Chromatrac; San Diego Instruments, San Diego, Calif) until the submerged platform was found (12 cm in diameter painted black, 2 cm below the surface). Swim speed was determined from these values. If the animal located the platform within 120 seconds it was permitted 30 seconds on the platform before the next trial commenced. […] The animal's entry point was randomized on each trial, and the location of the platform was randomly assigned to one of the four quadrants and remained fixed for each animal throughout training (5 trials/day for 8 days). At the conclusion of the 5 acquisition trials on day 8 each animal was administered one probe trial. […]
# [6] = Morris water maze task, probe trial; type: in vivo, male Sprague-Dawley rats; details: for time spent in the target quadrant: 70 μg/day cumulative, 120-s probe trial on day 8, mean ± SEM
# From the text: as §3, with “Those animals prepared with dorsal hippocampus guide cannulas were randomly assigned to one of two groups (8 rats each) that received either FN-439 or artificial cerebrospinal fluid vehicle (aCSF; in mM: 124 NaCl, 3 KCl, 1.24 KH2PO2, 1.3 MgSO4, 2.0 CaCl2, 26 NaHCO3, and 10 D-glucose). Those animals prepared with icv cannulas were similarly assigned.” left out
# The Morris water maze task was used to test spatial memory acquisition. […] Swim speed was determined from these values. […]
# HG gelatinase = details: ref Odake et al. [37], read-out: IC50 against gelatinase; cited from earlier work
# From the text: (§4) There are at least two possible explanations for these differences. First, Odake and colleagues used HSF stromelysin and HG gelatinase as substrates, while we used MMP-3 (stromelyisin-1) and MMP-9 (gelatinase B). Secon ...
# HSF stromelysin = details: ref Odake et al. [37], read-out: IC50 against stromelysin; cited from earlier work
# From the text: as §4
# MMP-9 = details: 7.2 mM stock in aCSF infused over 30 min, 100 μL (350 μg); vs aCSF control; ref Reeves et al. [19]; cited from earlier work
# [7] = icv, 7.2 mM stock, 10 μL (35 μg) twice, cumulative 70 μg; ref [27]; cited from earlier work
# From the text: (§5) The potential contribution of ECM remodeling to learning and memory has only recently been addressed. Our laboratory has focused on hippocampal mediated spatial memory and measured elevations in hippocampal MMP-3 and MMP-9 during acquisition of the Morris water maze task.
# [8] = system: late-phase of long-term potentiation (LTP); details: ref [27]; cited from earlier work
# From the text: as §5
# [9] = system: LTP in the sprouting crossed temporodentate pathway; details: icv 350 μg, following unilateral lesions of the entorhinal cortex; ref Reeves et al. [19]; cited from earlier work
# [10] = catalytic domain, substrate Mca-Pro-Leu-Gly-Leu-Dpa-Ala-Arg-NH2, 30 min preincubation at 37°C, fluorescence at 10-min intervals for one hour, mean ± SEM
# T1 sequence (P08254 100-272 limits assumed): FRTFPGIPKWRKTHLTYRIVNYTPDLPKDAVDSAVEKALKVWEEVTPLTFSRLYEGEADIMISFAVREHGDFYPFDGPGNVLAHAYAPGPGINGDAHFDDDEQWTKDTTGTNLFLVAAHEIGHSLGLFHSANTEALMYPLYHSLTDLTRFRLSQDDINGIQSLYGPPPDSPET
structure (smiles),measurement,setting,value
"CC(C)C[C@@H](NC(=O)[C@@H]1CCCN1C(=O)CNC(=O)c1ccc(N)cc1)C(=O)N[C@H](C)C(=O)NO [FN-439, 4-Abz-Gly-Pro-D-Leu-D-Ala-OH]",IC50,[1]; [10],16.2 ± 7.8 µM
same,effect upon the MMP-3 catalytic domain (in words),[1]; in vitro fluorescence assay,maximal effect
same,IC50,[2]; [10],210 ± 37.8 µM
same,specificity for the MMP-9 catalytic domain (in words),[2]; in vitro fluorescence assay,good specificity
same,inhibition of MMP-2 and MMP-9 in the hippocampus,[3]; dentate gyrus,significantly inhibited
same,basal activity of MMP-9 (green fluorescence),[3],significantly reduced
same,cellular toxicity (blue fluorescence of cell nuclei),[4],no cellular toxicity
same,acquisition of the Morris water maze task (in words),"[5]; bilateral into dorsal hippocampi or icv, 8 days, vs aCSF",significantly interfered with the acquisition of the task
same,"positive thigmotaxis (ratio of time near the wall to total trial time), day 8","[5]; dorsal hippocampus, aCSF hippocampus 0.17 ± 0.06",0.37 ± 0.09
same,day 8 latency to find the platform,"[5]; dorsal hippocampus, bilateral, aCSF hippocampus 13.4 ± 1.0 s",37.9 ± 8.4 s
same,day 8 distance swum to find the platform,"[5]; dorsal hippocampus, bilateral, aCSF hippocampus 4.2 ± 0.5 m",12.1 ± 2.9 m
same,overall swim speed during the 8 days of training,"[5]; dorsal hippocampus, aCSF hippocampus 0.30 ± 0.02 m/s",0.32 ± 0.02 m/s
same,latencies to find the platform on days 5–8 (in words),"[5]; hippocampus or icv, vs aCSF, P < .05",significantly longer latencies
same,"positive thigmotaxis (ratio of time near the wall to total trial time), day 8","[5]; icv, aCSF icv 0.14 ± 0.05",0.45 ± 0.11
same,day 8 latency to find the platform,"[5]; icv, aCSF icv 14.3 ± 1.9 s",44.4 ± 10.7 s
same,day 8 distance swum to find the platform,"[5]; icv, aCSF icv 5.8 ± 0.7 m",12.9 ± 2.7 m
same,overall swim speed during the 8 days of training,"[5]; icv, aCSF icv 0.31 ± 0.02 m/s",0.31 ± 0.02 m/s
same,dorsal hippocampus infusion compared with icv delivery (in words),[5]; interference with acquisition of the Morris water maze task,equivalently effective
same,"distance to find the platform, representative rat","[5]; dorsal hippocampus, aCSF rat 5.9 m",17.9 m
same,"latency to find the platform, representative rat","[5]; dorsal hippocampus, aCSF rat 15 s",38.3 s
same,"distance to find the platform, representative rat","[5]; icv, aCSF rat 4.7 m",14.8 m
same,"latency to find the platform, representative rat","[5]; icv, aCSF rat 13.3 s",43.9 s
same,time spent in the target quadrant,"[6]; dorsal hippocampus, aCSF hippocampus 40.7 ± 2.2 s",34.3 ± 2.7 s
same,number of entries into the target quadrant,"[6]; hippocampus or icv, probe trial day 8, groups compared incl. aCSF (F3,28 = 0.98, P > .10)",no differences
same,time spent in the target quadrant,"[6]; icv, aCSF icv 47.1 ± 4.0 s",28.4 ± 0.8 s
same,IC50,HG gelatinase,30 µM
same,IC50,HSF stromelysin,150 µM
same,inhibition of MMP-9 activity,MMP-9,83.6%
same,acquisition of the Morris water maze task,[7],disrupted the acquisition of the Morris water maze task
same,late-phase of long-term potentiation (LTP),[8],interfered with the late-phase of long-term potentiation
same,LTP in the sprouting pathway,[9],lack the ability to demonstrate LTP in the sprouting pathway
